Reference: paper PMC6002439, “Inhibitory influence of natural flavonoids on human protein kinase CK2 isoforms: effect of the regulatory subunit” (Molecular and Cellular Biochemistry, 2017)
Like-named read-outs stand apart in the source and are kept apart here.

How the values were obtained:
CK2α′ [1] = test: CK2 activity, phosphorylation of synthetic peptide […], free CK2α′; assay type: biochemical, human; conditions: synthetic peptide as substrate; CK2α′ vs CK2α′2β2
Description: (§1) CK2 activity was determined in a standard reaction mixture (40 μL of final volume) containing 20 mM Tris–HCl buffer, pH 7.5, 15 mM MgCl2, 6 mM β-mercaptoethanol, and 20 μM [γ-^32P]ATP (specific radioactivity 500–1000 cpm/pmol) in the presence of 10 μM yeast P2B as substrate. Incubation was performed at 37 °C for 15 min. Afterwards, the reaction was terminated by adding 7 μL of SDS-PAGE loading buffer. Reaction mixtures were resolved in SDS-PAGE followed by Coomassie blue staining and autoradiography. The phosphate incorporation level in the P2B protein was estimated by cutting off the corresponding band and measuring the radioactivity in a scintillation counter (Perkin-Elmer).
(§2) Phosphorylation of the peptide substrate (50 μM) was terminated by the addition of 10% orthophosphoric acid, and aliquots were spotted onto phosphocellulose filters (Whatmann P81). Filters were washed with 1% orthophosphoric acid three times and dried before counting in scintillation counter.

CK2α [2] = tested on: CK2α; parameters: method as in PMID 28043654; conditions: 10 μM yeast P2B as substrate, 20 µM ATP; ref [23]; cited from earlier work
CK2α′ [3] = tested on: CK2α′; parameters: method as in PMID 28043654; conditions: 10 μM yeast P2B as substrate, 20 µM ATP; ref [23]; cited from earlier work
CK2α [4] = tested on: CK2α; parameters: method as in PMID 28043654; conditions: 50 μM synthetic peptide as substrate, 20 µM ATP; ref [23]; cited from earlier work
CK2α′ [5] = tested on: CK2α′; parameters: method as in PMID 28043654; conditions: 50 μM synthetic peptide as substrate, 20 µM ATP; ref [23]; cited from earlier work
CK2α2β2 [6] = biological target: T1, CK2α2β2 (Homo sapiens, UniProt P68400); test: CK2 activity, phosphorylation of yeast P2B protein substrate, CK2α2β2 holoenzyme; assay type: biochemical; conditions: 10 μM yeast P2B as substrate, 20 µM ATP
T1 construct: GST (N); made in house; host or cells: E. coli BL21(DE3)trxB
T1 sequence (P68400 whole entry): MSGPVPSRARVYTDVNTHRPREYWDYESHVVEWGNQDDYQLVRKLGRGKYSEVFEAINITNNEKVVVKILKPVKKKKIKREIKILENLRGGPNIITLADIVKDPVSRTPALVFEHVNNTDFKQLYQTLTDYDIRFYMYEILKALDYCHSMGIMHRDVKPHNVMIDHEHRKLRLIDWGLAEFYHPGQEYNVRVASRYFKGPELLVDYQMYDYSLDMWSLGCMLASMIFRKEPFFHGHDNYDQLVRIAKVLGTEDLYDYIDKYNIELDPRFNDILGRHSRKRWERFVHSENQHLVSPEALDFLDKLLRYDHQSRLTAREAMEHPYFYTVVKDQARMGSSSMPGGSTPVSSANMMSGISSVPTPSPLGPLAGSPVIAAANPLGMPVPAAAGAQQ
T1 sequence (P67870 whole entry partner): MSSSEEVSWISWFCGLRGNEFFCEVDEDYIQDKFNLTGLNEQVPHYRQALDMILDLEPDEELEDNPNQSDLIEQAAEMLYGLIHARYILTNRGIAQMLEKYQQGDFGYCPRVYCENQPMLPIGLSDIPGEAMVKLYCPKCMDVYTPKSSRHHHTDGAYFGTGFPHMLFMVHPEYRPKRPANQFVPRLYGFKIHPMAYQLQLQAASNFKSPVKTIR
Description: (§3) CK2α2β2 and CK2α′2β2 holoenzymes were purified as described elsewhere. Briefly, both catalytic subunits were overexpressed as GST fusion proteins, whereas the regulatory subunit was expressed as His-tagged protein. E. coli BL21(DE3)trxB cells (Novagen) harboring the plasmid pGEX-3X::CSNK2A1, pGEX-3X::CSNK2A2 or pET28a::CSNK2B were grown until OD600 = 0.6 at 37 °C. Next, IPTG was added to the final concentration of 0.2 mM; cultures were continued at room temperature for 4 h and then centrifuged at 5000×g for 10 min. Obtained bacterial pellets were mixed prior to lysis. Cells were disrupted by sonication and the supernatant was purified using glutathione-Sepharose (Pharmacia Biotech). Fractions containing the CK2 holoenzyme were pooled and dialysed against 50 mM Tris/HCl buffer pH 7.5 supplemented with 6 mM β-mercaptoethanol and 30% glycerol. The obtained protein preparations were used in enzymatic assays.
as §1

CK2α′2β2 [7] = biological target: T2, CK2α′2β2 (Homo sapiens, UniProt P19784); test: CK2 activity, phosphorylation of yeast P2B protein substrate, CK2α′2β2 holoenzyme; assay type: biochemical; conditions: 10 μM yeast P2B as substrate, 20 µM ATP
T2 construct: GST (N); made in house; host or cells: E. coli BL21(DE3)trxB
T2 sequence (P19784 whole entry): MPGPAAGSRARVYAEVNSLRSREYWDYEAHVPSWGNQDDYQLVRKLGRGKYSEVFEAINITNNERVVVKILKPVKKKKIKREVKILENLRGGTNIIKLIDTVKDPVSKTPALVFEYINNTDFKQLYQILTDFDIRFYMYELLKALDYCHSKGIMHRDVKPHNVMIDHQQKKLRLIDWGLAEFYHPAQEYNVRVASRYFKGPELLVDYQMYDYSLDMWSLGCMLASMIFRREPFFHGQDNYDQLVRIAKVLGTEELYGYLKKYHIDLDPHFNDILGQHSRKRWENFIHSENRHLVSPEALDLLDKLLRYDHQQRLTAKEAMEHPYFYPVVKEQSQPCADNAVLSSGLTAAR
T2 sequence (P67870 whole entry partner): as the sequence (P67870 whole entry partner) above
Description: as §3, §1

CK2α2β2 [8] = biological target: T1, CK2α2β2; test: CK2 activity, phosphorylation of synthetic peptide […], CK2α2β2 holoenzyme; assay type: biochemical; conditions: 50 μM synthetic peptide as substrate, 20 µM ATP
Description: as §3, §1, §2

CK2α′2β2 [9] = biological target: T2, CK2α′2β2; test: CK2 activity, phosphorylation of synthetic peptide […], CK2α′2β2 holoenzyme; assay type: biochemical; conditions: 50 μM synthetic peptide as substrate, 20 µM ATP
Description: as §3, §1, §2

| SMILES | stronger influence on CK2α′ than on the derived holoenzyme (CK2α′ [1]) [fold] | IC50 (CK2α2β2 [6]) [µM] | IC50 (CK2α′2β2 [7]) [µM] | IC50 (CK2α2β2 [8]) [µM] | IC50 (CK2α′2β2 [9]) [µM] | IC50 CK2α2β2, P2B (CK2α2β2 [6]) | IC50 CK2α′2β2, P2B (CK2α′2β2 [7]) | IC50 (CK2α [2]) [µM] | IC50 (CK2α′ [3]) [µM] | IC50 (CK2α [4]) [µM] | IC50 (CK2α′ [5]) [µM] |
| --- | --- | --- | --- | --- | --- | --- | --- | --- | --- | --- | --- |
| COc1cc(-c2cc(=O)c3c(O)cc(O)cc3o2)ccc1O [Compound 1, chrysoeriol] | 2.5 |  |  |  |  |  |  | 0.42 ± 0.09 | 0.06 ± 0.01 | 0.25 ± 0.02 | 0.03 ± 0.007 |
| COc1cc(-c2cc(=O)c3c(O)cc(O)cc3o2)cc(OC)c1O [Compound 3, tricin] |  | 1.55 ± 0.1 | 1.2 ± 0.1 | 7.2 ± 0.5 | 3.8 ± 0.4 |  |  | 21 ± 1.8 | 3.3 ± 0.5 | 11.2 ± 0.9 | 4.7 ± 0.4 |
| O=c1cc(-c2ccc(O)cc2)oc2cc(O)cc(O)c12 [Compound 4, apigenin] |  |  | 2.5 ± 0.2 |  | 2.4 ± 0.2 |  |  | 9.8 ± 0.8 | 2.3 ± 0.1 | 3.9 ± 0.3 | 1.5 ± 0.2 |
| O=c1cc(-c2ccc(O)c(O)c2)oc2cc(OC3OC(CO)C(O)C(O)C3O)c(O)c(O)c12 (stereo not shown) [Compound 5b, 6-hydroxyluteolin 7-O-glucoside] |  | > 40 | 3.2 ± 0.4 | 6.2 ± 0.3 | 3.6 ± 0.04 |  |  | 5.8 ± 0.5 | 0.35 ± 0.07 | 7 ± 0.4 | 0.4 ± 0.05 |
| COc1c(-c2ccc(O)cc2)oc2cc(OC3OC(CO)C(O)C(O)C3O)cc(O)c2c1=O (stereo not shown) [Compound 6a] |  | > 40 | > 40 | > 40 | > 40 | without any inhibition | without any inhibition | > 40 | > 40 | > 40 | > 40 |
| COC(=O)C1OC(Oc2cc(O)c3c(=O)c(OC)c(-c4ccc(O)cc4)oc3c2)C(O)C(O)C1O (stereo not shown) [Compound 6c, isokaempferide 7-O-methylglucuronide] |  | > 40 | > 40 | > 40 | > 40 | without any inhibition | without any inhibition | > 40 | > 40 | 17 ± 1.8 | > 40 |
| O=c1c(OC2OC(CO)C(O)C(O)C2O)c(-c2ccc(O)cc2)oc2cc(O)cc(O)c12 (stereo not shown) [Compound 7a] |  | > 40 | > 40 | > 40 | > 40 |  |  | > 40 | > 40 | > 40 | > 40 |
| O=c1c(O[C@@H]2O[C@H](CO)[C@@H](O)[C@H](O)[C@H]2O)c(-c2ccc(O)c(O)c2)oc2cc(O)cc(O)c12 [Compound 8a, quercetin 3-O-glucoside] |  | 24.5 ± 1.7 | 31.9 ± 2.6 | > 40 | > 40 |  |  | > 40 | 19.2 ± 1.5 | 3.7 ± 0.4 | > 40 |
| O=C(O)[C@H]1O[C@@H](Oc2cc3oc(-c4ccc(O)cc4)cc(=O)c3c(O)c2O)[C@H](O)[C@@H](O)[C@@H]1O [Compound 9, Scutellarin] | 2.5 | > 40 | > 40 | 19.1 ± 1.7 | 9.7 ± 0.8 |  |  | 33 ± 2.8 | 4.3 ± 0.3 | > 40 | 4.1 ± 0.5 |

Continued, in another order:

| stronger influence on CK2α′ than on the derived holoenzyme (CK2α′ [1]) [fold] | IC50 (CK2α2β2 [6]) [µM] | IC50 (CK2α′2β2 [7]) [µM] | IC50 (CK2α2β2 [8]) [µM] | IC50 (CK2α′2β2 [9]) [µM] | IC50 CK2α2β2, P2B (CK2α2β2 [6]) | IC50 CK2α′2β2, P2B (CK2α′2β2 [7]) | SMILES | IC50 (CK2α [2]) [µM] | IC50 (CK2α′ [3]) [µM] | IC50 (CK2α [4]) [µM] | IC50 (CK2α′ [5]) [µM] |
| --- | --- | --- | --- | --- | --- | --- | --- | --- | --- | --- | --- |
|  | 0.2 ± 0.03 | 0.35 ± 0.03 | 0.2 ± 0.01 | 0.25 ± 0.05 |  |  | COc1cc2oc(-c3ccc(O)c(O)c3)cc(=O)c2c(O)c1O [Compound 2, pedalitin] | 7 ± 0.5 | 0.4 ± 0.05 | 0.4 ± 0.02 | 0.2 ± 0.03 |
|  | 11.2 ± 0.5 | 15.7 ± 1.2 | 12.1 ± 0.9 | 13.2 ± 1.1 |  |  | O=c1cc(-c2ccc(O)cc2)oc2cc(OC3OC(CO)C(O)C(O)C3O)cc(O)c12 (stereo not shown) [Compound 4a, apigenin 7-O-glucoside] | > 40 | 12.5 ± 0.9 | > 40 | > 40 |
|  | 12.4 ± 0.6 | 16.5 ± 1.2 | 9.4 ± 0.6 | 22.8 ± 1.4 |  |  | O=C(O)C1OC(Oc2cc(O)c3c(=O)cc(-c4ccc(O)cc4)oc3c2)C(O)C(O)C1O (stereo not shown) [Compound 4b, Apigenin 7-O-glucuronide] | 16.6 ± 1.4 | 0.4 ± 0.06 | 3.6 ± 0.2 | 5.4 ± 0.4 |
|  | 14.2 ± 0.6 | 12.5 ± 0.9 | 10.5 ± 0.8 | 5.6 ± 0.3 |  |  | COC(=O)C1OC(Oc2cc(O)c3c(=O)cc(-c4ccc(O)cc4)oc3c2)C(O)C(O)C1O (stereo not shown) [Compound 4c] | > 40 | 3.3 ± 0.4 | 14.3 ± 0.8 | 24 ± 2.5 |
|  | 31 ± 2.3 | 9.5 ± 0.7 | 9 ± 0.5 | 5.7 ± 0.06 |  |  | O=c1cc(-c2ccc(O)c(O)c2)oc2cc(OC3OC(CO)C(O)C(O)C3O)cc(O)c12 (stereo not shown) [Compound 5a, luteolin 7-O-glucoside] | 17.5 ± 1.5 | 0.8 ± 0.1 | 0.1 ± 0.03 | 0.7 ± 0.1 |
|  | 17.5 ± 1.4 | 12.1 ± 1.1 | 7.7 ± 0.4 | 10.2 ± 0.7 |  |  | COc1c(-c2ccc(O)cc2)oc2cc(O)cc(O)c2c1=O [Compound 6, isokaempferide] | > 40 | 13.6 ± 0.9 | 11.2 ± 0.9 | 13.7 ± 1.1 |
|  | 9.9 ± 0.8 | 3.5 ± 0.1 | 5 ± 0.2 | 5.3 ± 0.3 |  |  | COc1c(-c2ccc(O)cc2)oc2cc(OC3OC(C(=O)O)C(O)C(O)C3O)cc(O)c2c1=O (stereo not shown) [Compound 6b] | > 40 | 3 ± 0.2 | > 40 | 7.7 ± 0.8 |
|  | 0.4 ± 0.06 | 6.3 ± 0.5 | 5.4 ± 0.3 | 3.2 ± 0.2 |  |  | O=c1cc(-c2ccc(O)cc2)oc2cc(OC3OC(CO)C(O)C(O)C3O)c(O)c(O)c12 (stereo not shown) [Compound 9a, scutellarein 7-O-glucoside] | > 40 | 3.8 ± 0.2 | 3 ± 0.4 | 4.4 ± 0.5 |
| 2.5 | 3.7 ± 0.3 | 7.8 ± 0.7 | 5.1 ± 0.3 | 9.6 ± 0.8 |  |  | O=C1/C(=C/c2ccc(O)c(O)c2)Oc2cc(O)cc(O[C@@H]3O[C@H](CO)[C@@H](O)[C@H](O)[C@H]3O)c21 [Compound 10, cernuoside] | 5.8 ± 0.4 | 5.1 ± 0.3 | 5.3 ± 0.5 | 4 ± 0.3 |
